Test results as given in article PMC9019100, “Development of NanoLuc-targeting protein degraders and a universal reporter system to benchmark tag-targeted degradation platforms” (Nature Communications, 2022).
“And” between values parts separate entries of the source, which are not always exact repeats. Equal entries are not always repeated. Where two headings read alike, the source gives them in different places. Peptide text beside a SMILES is read from it. * marks the point of attachment. Cbz = O=C(OCc1ccccc1)*

Assays:
[1] = molecular target: T1, Halo-EGFP-NanoLuc-FKBP^F36V (H-E-N-F) fusion protein (UniProt P0A3G2+P62942+Q9GV45, A155T/A167V/A172T/A224E/A31E/A60N/A81I/C128F/C176G/D78G/E160K/E257K/F37V/F95D/H272N/I117V/K175M/K195N/K70R/L47V/L54V/L88M/L99Q/M102K/N193R/N227D/P142E/P291S/Q151K/Q38R/Q45L/S2A/S58T/T264A/V71I/Y165I/Y273L/Y87F); type: cell-based
wild-type HT29 cells = assay: Necroptosis assay (PI exclusion, flow cytometry), wild-type HT29 cells, TNF+SM+IDN; type: cell-based, human; conditions: sheet S5F
Description: To simulate necroptosis, cells were seeded into 96-well plates ±40 ng/mL doxycycline, to induce construct expression, and treated with 100 ng/mL FLAG-TNF (recombinant human, in-house), 500 nM compound A Smac mimetic (kindly gifted by TetraLogics Pharmaceuticals) and 5 μM IDN-6556 (Cayman) or 10 uM Z-VAD-fmk (Selleckchem) overnight (16–24 h). Degrader compounds or a DMSO vehicle control were added for 5 h, as stated in the Fig. legends. Cells were detached using Trypsin-EDTA (Merck) and resuspended in cell supernatants containing 10 μg/mL propidium iodide (PI). PI exclusion analysis was performed using an LSR II flow cytometer (Becton Dickinson, NJ) with 10,000 single-cell events per sample. Flow cytometry data were analysed using WEASEL version 2.7 software (Frank Battye).
Supplementary Figure 5. […]
NC4. Data are representative of N = 3 independent experiments. f-h. HT29 cells were stimulated with DMSO (control) or 500 nM of degrader for 5 hours before the addition of TNF (100 ng/mL) + Smac mimetic (compound A; 500 nM-1 µM) + caspase inhibitor; Emricasan (IDN) (5 µM), for 24 hours. Cell death was assessed by flow cytometric analysis of PI exclusion. N = 3 replicates (symbols) is shown, EB; mean ± SD. Data are representative of N = 3 independent experiments. i. Representative flow cytometry gating strategy. Source data are provided as a Source Data file.

[2] = molecular target: T1, Halo-EGFP-NanoLuc-FKBP^F36V (H-E-N-F) fusion protein; type: cell-based; conditions: 125-500 nM, 5 h
[3] = molecular target: recombinant NanoLuc enzyme (Oplophorus gracilirostris, UniProt Q9GV45, A31E/A60N/A81I/F95D/I117V/K70R/L54V/L99Q/M102K/N193R/P142E/Q151K/Q38R/Q45L/V71I/Y165I); type: biochemical; conditions: replicates
NanoLuc = conditions: read-out: IC50 against the enzymatic activity of NanoLuc; cited from earlier work
[4] = 62.5nM, sheet S3B, replicate wells
[5] = 250nM, sheet S3B, replicate wells
[6] = 500nM, sheet S3B, replicate wells
[7] = 1uM, sheet S3B, replicate wells

T1 sequence (Q9GV45 other isoform, or with tags, fused parts or gaps with the stated changes): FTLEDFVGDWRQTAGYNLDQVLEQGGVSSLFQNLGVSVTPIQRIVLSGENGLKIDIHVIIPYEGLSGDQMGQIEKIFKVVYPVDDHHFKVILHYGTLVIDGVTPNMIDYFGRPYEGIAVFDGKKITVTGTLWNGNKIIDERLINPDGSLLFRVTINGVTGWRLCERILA
T1 sequence (P0A3G2 other isoform, or with tags, fused parts or gaps with the stated changes): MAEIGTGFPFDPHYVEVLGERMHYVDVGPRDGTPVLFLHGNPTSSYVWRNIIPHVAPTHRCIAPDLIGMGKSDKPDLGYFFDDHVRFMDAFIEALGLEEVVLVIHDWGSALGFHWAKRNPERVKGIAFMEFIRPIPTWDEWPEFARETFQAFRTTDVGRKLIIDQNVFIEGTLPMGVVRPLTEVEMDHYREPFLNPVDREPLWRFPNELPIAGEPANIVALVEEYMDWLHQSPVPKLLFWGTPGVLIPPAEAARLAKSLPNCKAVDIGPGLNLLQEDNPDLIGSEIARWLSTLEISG
T1 sequence (P62942 whole entry F37V, the tested form may be a part): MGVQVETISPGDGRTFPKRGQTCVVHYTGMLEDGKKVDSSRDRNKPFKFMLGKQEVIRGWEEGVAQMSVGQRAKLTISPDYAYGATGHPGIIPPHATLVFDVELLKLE
Chain of recombinant NanoLuc enzyme (Q9GV45 other isoform, or with tags, fused parts or gaps with the stated changes): as the sequence (Q9GV45 other isoform, or with tags, fused parts or gaps with the stated changes) above

SMILES: O=C(COCCOCCCCCCCl)NCCCCNc1cccc2c1C(=O)N(C1CCC(=O)NC1=O)C2=O (stereo not drawn) [HC2]
- Blank corrected (470-80) [1, 4]: 420571 and 387799 and 422451 and 372874
- Fold Change [1, 4]: 29.7356 and 27.4185 and 29.8685 and 26.3633
- Blank corrected (470-80) [1, 5]: 400261 and 371225 and 406289 and 348754
- Fold Change [1, 5]: 28.2996 and 26.2467 and 28.7258 and 24.6579
- Blank corrected (470-80) [1, 6]: 327362 and 397295 and 324101 and 372826
- Fold Change [1, 6]: 23.1455 and 28.0899 and 22.9149 and 26.3599
- Blank corrected (470-80) [1, 7]: 379647 and 379271 and 373688 and 369126
- Fold Change [1, 7]: 26.8422 and 26.8156 and 26.4208 and 26.0983

SMILES: O=C1CCC(N2C(=O)c3cccc(OCCOCCCCCCCl)c3C2=O)C(=O)N1 (stereo not drawn) [HC3]
- Blank corrected (470-80) [1, 4]: 383533 and 318115 and 323446 and 301555
- Fold Change [1, 4]: 27.1169 and 22.4917 and 22.8686 and 21.3208
- Blank corrected (470-80) [1, 5]: 323125 and 344451 and 351301 and 328848
- Fold Change [1, 5]: 22.8459 and 24.3537 and 24.838 and 23.2505
- Blank corrected (470-80) [1, 6]: 366778 and 337071 and 347923 and 313983
- Fold Change [1, 6]: 25.9323 and 23.8319 and 24.5992 and 22.1995
- Blank corrected (470-80) [1, 7]: 388451 and 372097 and 370806 and 376397
- Fold Change [1, 7]: 27.4646 and 26.3084 and 26.2171 and 26.6124

SMILES: CC(C)C[C@@H](C=O)NC(=O)[C@H](CC(C)C)NC(=O)[C@H](CC(C)C)NC(=O)OCc1ccccc1 [MG132] (Cbz-Leu-Leu-Leu-aldehyde)
- Blank corrected Raw Data (470-80) ([1]; +dox, MG132 (10uM) alone (DMSO instead of PROTAC)): 83521 and 88764 and 88216 and 91215
- Fold Change ([1]; +dox, MG132 (10uM) alone (DMSO instead of PROTAC), fold of -dox well): 83.7723 and 89.0311 and 88.4814 and 91.4895

SMILES: CCc1cccc(N(CC)C(=O)Cn2c(C(=O)NC3CCC(C(=O)NCCCCCCCC(=O)NCCCCCCOc4cccc5c4C(=O)N(C4CCC(=O)NC4=O)C5=O)CC3)cc3ccccc32)c1 (stereo not drawn) [NC3]
- viable cells (PI exclusion) (wild-type HT29 cells; TNF+SM+IDN): 7.5 and 6.4 and 5.5
- viable cells (PI exclusion) (wild-type HT29 cells; Unt (no death stimulus)): 69.5 and 75.6 and 73.1
- degradation of the H-E-N-F substrate protein by Western blot, comparison of NanoTACs [2]: consistently outperforming the first analogue NC1

SMILES: CCc1cccc(N(CC)C(=O)Cn2c(C(=O)NC3CCC(C(=O)NCCCCCCCC(=O)NCCCCNc4cccc5c4C(=O)N(C4CCC(=O)N(C)C4=O)C5=O)CC3)cc3ccccc32)c1 (stereo not drawn) [NC*]
- NanoLuc luminescence, Blank corrected (470-80) ([1]; 62.5nM, 2h, replicate wells): 6632 and 6164 and 5786
- NanoLuc luminescence, Blank corrected (470-80) ([1]; 62.5nM, 4h, replicate wells): 6756 and 7430 and 5962 and 6824
- NanoLuc luminescence, Blank corrected (470-80) ([1]; 62.5nM, 6h, replicate wells): 6820 and 5574 and 6168
- NanoLuc luminescence, Blank corrected (470-80) ([1]; 62.5nM, 8h, replicate wells): 5136 and 5355 and 4609
- NanoLuc luminescence, Blank corrected (470-80) ([1]; 62.5nM, 10h, replicate wells): 4237 and 3067 and 4015
- NanoLuc luminescence, Blank corrected (470-80) ([1]; 250nM, 2h, replicate wells): 1984 and 2219 and 1857
- NanoLuc luminescence, Blank corrected (470-80) ([1]; 250nM, 4h, replicate wells): 1613 and 1684 and 1340
- NanoLuc luminescence, Blank corrected (470-80) ([1]; 250nM, 6h, replicate wells): 1527 and 1526 and 1826 and 1766
- NanoLuc luminescence, Blank corrected (470-80) ([1]; 250nM, 8h, replicate wells): 1602 and 1230 and 1627
- NanoLuc luminescence, Blank corrected (470-80) ([1]; 250nM, 10h, replicate wells): 919 and 829 and 1005
- NanoLuc luminescence, Blank corrected (470-80) ([1]; 500nM, 2h, replicate wells): 1232 and 850 and 1011 and 825
- NanoLuc luminescence, Blank corrected (470-80) ([1]; 500nM, 4h, replicate wells): 934 and 992 and 902
- NanoLuc luminescence, Blank corrected (470-80) ([1]; 500nM, 6h, replicate wells): 854 and 738 and 679 and 842
- NanoLuc luminescence, Blank corrected (470-80) ([1]; 500nM, 8h, replicate wells): 717 and 620 and 849
- NanoLuc luminescence, Blank corrected (470-80) ([1]; 500nM, 10h, replicate wells): 481 and 501 and 461

SMILES: CCc1cccc(N(CC)C(=O)Cn2c(C(=O)N[C@H]3CC[C@H](C(=O)NCCCCCCCC(=O)O)CC3)cc3ccccc32)c1 [NanoLuc Inhibtor 2]
- NanoLuc luminescence (enzyme activity remaining) ([3]; [uM] -0.30103 (log10 concentration)): 0.9
- NanoLuc luminescence (enzyme activity remaining) ([3]; [uM] -0.82391 (log10 concentration)): 1.5 (2×) and 1.6
- NanoLuc luminescence (enzyme activity remaining) ([3]; [uM] -1.34679 (log10 concentration)): 4.4 and 4.7 and 4.6
- NanoLuc luminescence (enzyme activity remaining) ([3]; [uM] -1.86967 (log10 concentration)): 23.6 and 24.5 and 24.3
- NanoLuc luminescence (enzyme activity remaining) ([3]; [uM] -2.39254 (log10 concentration)): 55.8 and 56.1 and 58
- NanoLuc luminescence (enzyme activity remaining) ([3]; [uM] -2.91542 (log10 concentration)): 74.8 and 76.4 and 76
- NanoLuc luminescence (enzyme activity remaining) ([3]; [uM] -3.4383 (log10 concentration)): 81.7 and 82.7 and 82.1

SMILES: CCN(C(=O)Cn1c(C(=O)N[C@H]2CC[C@H](C(=O)NCCCCCCCC(=O)O)CC2)cc2sccc21)c1cccc(C)c1 [NanoLuc inhibitor 1]
- IC50 (NanoLuc): 31 nM

SMILES: CCc1cccc(N(CC)C(=O)Cn2c(C(=O)N[C@H]3CC[C@H](C(=O)NCCCCCCCC(=O)O)CC3)cc3ccccc32)c1 [NanoLuc inhibitor 2]
- IC50 (NanoLuc): 4.2 nM
